From PMC6199744, “Development of Chemical Proteomics for the Folateome and Analysis of the Kinetoplastid Folateome” (ACS Infectious Diseases, 2018)
Read-outs that look alike come from different tables or passages of the source.

Columns and labels:
Format in all cases: binding
[1] = molecular target: T1, HeLa cell extract proteins (Homo sapiens, UniProt O15427)
T1 construct: endogenous in cells; host or cells: HeLa cell extract
T1 sequence (O15427 1-465): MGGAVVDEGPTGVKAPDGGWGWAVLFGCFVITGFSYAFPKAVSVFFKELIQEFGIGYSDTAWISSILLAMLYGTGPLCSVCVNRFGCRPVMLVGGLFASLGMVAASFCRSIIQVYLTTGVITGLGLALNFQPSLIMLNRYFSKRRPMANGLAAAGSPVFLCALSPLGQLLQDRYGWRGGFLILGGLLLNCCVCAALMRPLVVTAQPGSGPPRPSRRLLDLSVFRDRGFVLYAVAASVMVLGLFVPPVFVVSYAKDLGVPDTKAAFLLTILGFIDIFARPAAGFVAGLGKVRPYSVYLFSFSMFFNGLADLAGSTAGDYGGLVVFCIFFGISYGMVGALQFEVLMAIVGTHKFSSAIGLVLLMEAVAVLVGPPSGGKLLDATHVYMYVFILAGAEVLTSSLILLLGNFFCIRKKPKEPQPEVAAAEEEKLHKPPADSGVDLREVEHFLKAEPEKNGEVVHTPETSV

[2] = molecular target: T2, HeLa cell extract proteins (Homo sapiens, UniProt O43865)
T2 construct: endogenous in cells; host or cells: HeLa cell extract

[3] = molecular target: T3, HeLa cell extract proteins (Homo sapiens, UniProt P14868)
T3 construct: endogenous in cells; host or cells: HeLa cell extract
T3 sequence (P14868 1-501): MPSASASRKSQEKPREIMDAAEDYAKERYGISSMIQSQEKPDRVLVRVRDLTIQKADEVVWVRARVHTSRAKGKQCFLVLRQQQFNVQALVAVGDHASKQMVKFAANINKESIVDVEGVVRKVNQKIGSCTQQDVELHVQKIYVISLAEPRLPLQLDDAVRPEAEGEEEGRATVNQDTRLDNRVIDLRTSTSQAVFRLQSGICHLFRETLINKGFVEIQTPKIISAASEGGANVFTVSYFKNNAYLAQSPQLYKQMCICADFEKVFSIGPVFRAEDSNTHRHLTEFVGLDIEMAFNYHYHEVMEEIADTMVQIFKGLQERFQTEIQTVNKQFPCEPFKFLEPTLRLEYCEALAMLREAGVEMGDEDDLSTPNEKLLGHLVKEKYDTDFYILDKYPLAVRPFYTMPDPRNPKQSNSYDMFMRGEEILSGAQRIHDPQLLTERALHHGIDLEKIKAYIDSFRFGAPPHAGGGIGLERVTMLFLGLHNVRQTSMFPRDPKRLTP

[4] = molecular target: T4, HeLa cell extract proteins (Homo sapiens, UniProt P40763)
T4 construct: endogenous in cells; host or cells: HeLa cell extract

[5] = molecular target: T5, HeLa cell extract proteins (Homo sapiens, UniProt Q05048)
T5 construct: endogenous in cells; host or cells: HeLa cell extract
T5 sequence (Q05048 1-431): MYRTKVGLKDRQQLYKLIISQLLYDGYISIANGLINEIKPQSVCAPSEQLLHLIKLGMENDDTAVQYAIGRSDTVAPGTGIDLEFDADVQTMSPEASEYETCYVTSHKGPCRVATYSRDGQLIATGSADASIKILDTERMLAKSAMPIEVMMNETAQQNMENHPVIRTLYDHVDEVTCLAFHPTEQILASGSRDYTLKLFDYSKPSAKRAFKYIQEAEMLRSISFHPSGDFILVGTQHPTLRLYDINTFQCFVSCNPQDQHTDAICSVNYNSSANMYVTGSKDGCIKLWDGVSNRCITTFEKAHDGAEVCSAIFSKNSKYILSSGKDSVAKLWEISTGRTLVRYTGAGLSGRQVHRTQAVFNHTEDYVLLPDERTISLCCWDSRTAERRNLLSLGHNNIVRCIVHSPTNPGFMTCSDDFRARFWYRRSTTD

[6] = molecular target: T6, HeLa cell extract proteins (Homo sapiens, UniProt Q15046)
T6 construct: endogenous in cells; host or cells: HeLa cell extract

[7] = molecular target: T7, HeLa cell extract proteins (Homo sapiens, UniProt Q15436)
T7 construct: endogenous in cells; host or cells: HeLa cell extract

[8] = molecular target: T8, HeLa cell extract proteins (Homo sapiens, UniProt Q8TCG1)
T8 construct: endogenous in cells; host or cells: HeLa cell extract

[9] = molecular target: T9, HeLa cell extract proteins (Homo sapiens, UniProt Q9HBU6)
T9 construct: endogenous in cells; host or cells: HeLa cell extract
T9 sequence (Q9HBU6 1-452): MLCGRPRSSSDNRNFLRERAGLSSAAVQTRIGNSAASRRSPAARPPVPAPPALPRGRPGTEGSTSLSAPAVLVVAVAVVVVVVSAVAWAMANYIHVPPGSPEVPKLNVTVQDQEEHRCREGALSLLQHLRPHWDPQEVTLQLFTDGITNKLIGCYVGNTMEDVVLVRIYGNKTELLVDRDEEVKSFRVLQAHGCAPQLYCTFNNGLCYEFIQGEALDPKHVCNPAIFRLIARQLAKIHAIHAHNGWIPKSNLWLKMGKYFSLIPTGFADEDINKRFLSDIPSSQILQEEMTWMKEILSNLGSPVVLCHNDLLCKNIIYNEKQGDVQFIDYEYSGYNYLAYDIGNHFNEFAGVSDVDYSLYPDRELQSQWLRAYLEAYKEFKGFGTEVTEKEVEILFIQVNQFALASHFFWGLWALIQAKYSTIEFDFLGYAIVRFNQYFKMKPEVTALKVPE

[10] = captured protein KIAA1524, HeLa

T7 sequence (Q15436 whole entry): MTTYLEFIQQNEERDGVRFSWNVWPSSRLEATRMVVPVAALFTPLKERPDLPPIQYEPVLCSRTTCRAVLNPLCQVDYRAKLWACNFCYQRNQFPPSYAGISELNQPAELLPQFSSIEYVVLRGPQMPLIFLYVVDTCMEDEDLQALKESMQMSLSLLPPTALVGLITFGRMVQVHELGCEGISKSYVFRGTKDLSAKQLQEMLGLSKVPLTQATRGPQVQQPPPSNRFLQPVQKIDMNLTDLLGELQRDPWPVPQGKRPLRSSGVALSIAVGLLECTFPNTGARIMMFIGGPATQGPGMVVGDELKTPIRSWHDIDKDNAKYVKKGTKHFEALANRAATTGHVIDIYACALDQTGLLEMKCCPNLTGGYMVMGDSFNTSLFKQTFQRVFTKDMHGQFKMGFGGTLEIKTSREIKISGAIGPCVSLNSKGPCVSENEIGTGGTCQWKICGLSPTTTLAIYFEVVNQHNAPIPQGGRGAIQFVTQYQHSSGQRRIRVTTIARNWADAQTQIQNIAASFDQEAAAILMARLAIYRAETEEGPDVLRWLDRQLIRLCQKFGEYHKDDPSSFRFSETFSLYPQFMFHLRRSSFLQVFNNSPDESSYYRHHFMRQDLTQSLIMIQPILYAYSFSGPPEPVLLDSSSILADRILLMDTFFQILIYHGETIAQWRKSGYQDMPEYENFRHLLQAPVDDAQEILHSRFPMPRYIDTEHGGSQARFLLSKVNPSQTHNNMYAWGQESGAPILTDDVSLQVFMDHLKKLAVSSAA
T6 sequence (Q15046 whole entry): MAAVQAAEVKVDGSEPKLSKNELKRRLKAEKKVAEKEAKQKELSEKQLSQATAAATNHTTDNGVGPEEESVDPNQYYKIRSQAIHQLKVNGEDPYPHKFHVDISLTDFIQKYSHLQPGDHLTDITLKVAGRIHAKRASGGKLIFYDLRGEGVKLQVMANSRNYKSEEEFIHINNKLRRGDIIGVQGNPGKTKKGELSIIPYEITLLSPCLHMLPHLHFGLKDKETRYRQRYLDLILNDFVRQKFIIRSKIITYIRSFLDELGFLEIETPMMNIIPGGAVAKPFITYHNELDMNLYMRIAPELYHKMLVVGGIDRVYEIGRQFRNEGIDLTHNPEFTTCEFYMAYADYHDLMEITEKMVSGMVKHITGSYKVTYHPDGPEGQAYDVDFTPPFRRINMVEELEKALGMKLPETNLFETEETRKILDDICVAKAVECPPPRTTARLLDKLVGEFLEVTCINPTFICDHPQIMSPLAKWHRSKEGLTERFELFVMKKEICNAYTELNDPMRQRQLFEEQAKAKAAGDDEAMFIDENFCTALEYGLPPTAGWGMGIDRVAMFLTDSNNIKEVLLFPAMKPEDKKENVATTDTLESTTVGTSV
T2 sequence (O43865 whole entry): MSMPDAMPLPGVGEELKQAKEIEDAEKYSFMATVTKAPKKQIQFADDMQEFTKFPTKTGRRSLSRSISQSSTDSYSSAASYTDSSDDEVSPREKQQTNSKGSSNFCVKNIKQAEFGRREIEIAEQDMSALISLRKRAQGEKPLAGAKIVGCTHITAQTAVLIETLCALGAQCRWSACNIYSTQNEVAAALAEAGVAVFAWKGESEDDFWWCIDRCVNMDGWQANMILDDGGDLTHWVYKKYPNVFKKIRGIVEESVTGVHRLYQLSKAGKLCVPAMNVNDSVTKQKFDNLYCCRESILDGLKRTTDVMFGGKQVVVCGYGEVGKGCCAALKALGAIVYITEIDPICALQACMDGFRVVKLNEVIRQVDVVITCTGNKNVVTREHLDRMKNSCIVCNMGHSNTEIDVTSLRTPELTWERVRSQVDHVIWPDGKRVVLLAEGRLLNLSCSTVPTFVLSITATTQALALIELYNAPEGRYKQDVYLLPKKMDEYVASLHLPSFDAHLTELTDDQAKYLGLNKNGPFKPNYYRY
T4 sequence (P40763 whole entry): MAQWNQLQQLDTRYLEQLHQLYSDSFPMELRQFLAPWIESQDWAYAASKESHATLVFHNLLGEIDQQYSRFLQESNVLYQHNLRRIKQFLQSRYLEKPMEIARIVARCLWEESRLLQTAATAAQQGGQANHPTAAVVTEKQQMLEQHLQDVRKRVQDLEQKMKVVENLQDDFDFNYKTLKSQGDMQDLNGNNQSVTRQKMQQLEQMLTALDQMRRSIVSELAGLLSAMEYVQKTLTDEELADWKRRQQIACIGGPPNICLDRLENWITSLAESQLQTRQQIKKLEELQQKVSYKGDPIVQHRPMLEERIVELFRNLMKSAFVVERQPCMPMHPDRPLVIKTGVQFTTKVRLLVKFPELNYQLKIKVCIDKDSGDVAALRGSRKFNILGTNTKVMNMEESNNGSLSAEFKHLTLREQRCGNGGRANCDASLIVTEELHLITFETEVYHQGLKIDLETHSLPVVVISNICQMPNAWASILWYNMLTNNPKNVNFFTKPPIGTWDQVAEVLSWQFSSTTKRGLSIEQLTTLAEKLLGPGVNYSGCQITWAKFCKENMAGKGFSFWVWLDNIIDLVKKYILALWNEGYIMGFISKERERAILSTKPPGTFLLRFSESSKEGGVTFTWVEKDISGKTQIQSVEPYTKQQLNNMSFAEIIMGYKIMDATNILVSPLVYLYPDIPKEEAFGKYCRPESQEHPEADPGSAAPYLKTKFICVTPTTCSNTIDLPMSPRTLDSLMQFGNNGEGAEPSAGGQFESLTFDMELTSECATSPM

| Structure (SMILES) | fold changes relative to vehicle control ([1]; HeLa, protein SLC16A3) | fold changes relative to vehicle control ([2]; protein AHCYL1, HeLa) | fold changes relative to vehicle control ([3]; protein DARS, HeLa) | fold changes relative to vehicle control ([4]; protein STAT3, HeLa) | fold changes relative to vehicle control ([5]; HeLa, protein CSTF1) | fold changes relative to vehicle control ([6]; protein KARS, HeLa) | fold changes relative to vehicle control ([7]; HeLa, protein SEC23A) | fold changes relative to vehicle control [8, 10] | fold changes relative to vehicle control ([9]; HeLa, protein ETNK1) | fold changes relative to vehicle control ([2]; HeLa, captured protein AHCYL1) | fold changes relative to vehicle control ([3]; HeLa, protein DARS) | fold changes relative to vehicle control ([5]; HeLa, captured protein CSTF1) | fold changes relative to vehicle control ([6]; HeLa, captured protein KARS) | fold changes relative to vehicle control ([8]; HeLa, protein KIAA1524) | fold changes relative to vehicle control ([9]; protein ETNK1, HeLa) | other results |
| --- | --- | --- | --- | --- | --- | --- | --- | --- | --- | --- | --- | --- | --- | --- | --- | --- |
| Nc1nc2cccc(-c3ccccc3)c2n1Cc1ccc(Cl)c(Cl)c1 [compound 3] | 0.94 | 0.94 | 0.93 | 1.15 | 0.98 | 1.13 | 1.04 | 0.98 | 1.53 |  |  |  |  |  |  |  |
| CCCCCCOc1ccc(Cc2cnc(N)nc2N)cc1 [compound 1] | 0.83 | 1.1 | 1.02 | 0.87 | 1.05 | 0.74 | 1.1 | 0.97 | 0.94 |  |  |  |  |  |  |  |
| NCCCNc1ccc(C(=O)NC(CCC(=O)O)C(=O)O)cc1 (stereo not drawn) [compound 7] | 0.94 |  |  | 1 |  |  | 1.1 |  |  | 1.03 | 1.06 | 1.02 | 1.07 | 0.89 | 1.01 |  |
| CCCCCCOc1cccc(Cc2cnc(N)nc2N)c1 [compound 2] | 0.94 | 1.59 | 1.15 | 1.1 | 0.99 | 1.12 | 1.07 | 1.09 | 0.99 |  |  |  |  |  |  |  |
| NCCOCCOCC(=O)Nc1nc2ncc(CNc3ccc(C(=O)NC(CCC(=O)O)C(=O)O)cc3)nc2c(=O)[nH]1 (stereo not drawn) [compound 6] | 0.85 |  |  | 0.91 |  |  | 0.89 |  |  | 1.25 | 0.99 | 0.88 | 1.04 | 0.94 | 0.96 |  |
| Nc1nc2[nH]cc(CCc3ccc(C(=O)N[C@@H](CCC(=O)O)C(=O)O)cc3)c2c(=O)[nH]1 [PTX, pemetrexed] |  |  |  |  |  |  |  |  |  |  |  |  |  |  |  | fold changes relative to vehicle control [1]: 0.85; fold changes relative to vehicle control [2]: 1.08; fold changes relative to vehicle control [3]: 0.98; fold changes relative to vehicle control [4]: 0.73; fold changes relative to vehicle control [5]: 0.99; fold changes relative to vehicle control [6]: 0.96; fold changes relative to vehicle control [7]: 0.94; fold changes relative to vehicle control [8]: 0.87; fold changes relative to vehicle control [9]: 0.91 |
| Nc1nc2c(c(=O)[nH]1)N(C=O)C(CNc1ccc(C(=O)N[C@@H](CCC(=O)O)C(=O)O)cc1)CN2 (stereo partly drawn) [LEU, leucovorin] | 0.96 |  |  | 0.81 |  |  | 0.94 |  |  | 1.12 | 0.94 | 1 | 0.91 | 0.87 | 0.99 |  |
